Reference: ChEMBL document CHEMBL4421728, “Bach1 Inhibitors in Combination with Nrf2 Activators and Pharmaceutical Compositions Thereof” (2017)

What was measured:
[1] = target: T1, Transcription regulator protein BACH1 (Homo sapiens) (UniProt O14867); test: Inhibition of Bach1 in normal human lung fibroblasts assessed as induction of HMOX protein expression at 0.078 uM incubated for 16 to 18 hrs in presence of 0.019 uM Nrf2 activator Bardoxolone methyl by immunostaining relative to control
T1 sequence (whole entry): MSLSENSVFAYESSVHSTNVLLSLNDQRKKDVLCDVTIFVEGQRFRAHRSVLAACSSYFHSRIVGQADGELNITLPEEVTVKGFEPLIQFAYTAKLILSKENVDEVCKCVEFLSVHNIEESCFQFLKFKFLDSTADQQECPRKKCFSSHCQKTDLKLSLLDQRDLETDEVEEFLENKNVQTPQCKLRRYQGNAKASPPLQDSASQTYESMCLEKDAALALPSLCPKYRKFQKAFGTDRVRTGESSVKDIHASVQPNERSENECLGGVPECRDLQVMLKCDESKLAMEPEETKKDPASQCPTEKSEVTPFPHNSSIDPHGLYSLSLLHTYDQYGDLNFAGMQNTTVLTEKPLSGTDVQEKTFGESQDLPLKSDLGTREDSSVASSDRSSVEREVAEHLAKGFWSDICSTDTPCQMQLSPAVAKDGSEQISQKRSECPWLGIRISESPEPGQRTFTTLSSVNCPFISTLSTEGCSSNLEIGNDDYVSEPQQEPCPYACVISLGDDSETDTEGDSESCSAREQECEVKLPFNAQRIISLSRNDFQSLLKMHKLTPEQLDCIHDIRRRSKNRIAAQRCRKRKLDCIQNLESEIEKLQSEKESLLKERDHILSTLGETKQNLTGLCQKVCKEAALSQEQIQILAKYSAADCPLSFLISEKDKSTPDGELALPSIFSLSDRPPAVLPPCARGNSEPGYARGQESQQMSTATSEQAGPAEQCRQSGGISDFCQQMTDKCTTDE

[2] = target: T1, Transcription regulator protein BACH1 (Homo sapiens); test: Inhibition of Bach1 in normal human lung fibroblasts assessed as induction of HMOX protein expression at 0.156 uM incubated for 16 to 18 hrs in presence of 0.156 uM Nrf2 activator Bardoxolone methyl by immunostaining relative to control
[3] = target: T1, Transcription regulator protein BACH1 (Homo sapiens); test: Inhibition of Bach1 in normal human lung fibroblasts assessed as induction of HMOX protein expression at 1.25 uM incubated for 16 to 18 hrs in presence of 0.0048 uM Nrf2 activator Bardoxolone methyl by immunostaining relative to control
[4] = target: T1, Transcription regulator protein BACH1 (Homo sapiens); test: Inhibition of Bach1 in normal human lung fibroblasts assessed as induction of HMOX protein expression at 2.5 uM incubated for 16 to 18 hrs in presence of 0.156 uM Nrf2 activator Bardoxolone methyl by immunostaining relative to control
[5] = target: T1, Transcription regulator protein BACH1 (Homo sapiens); test: Inhibition of Bach1 in normal human lung fibroblasts assessed as induction of HMOX protein expression at 0.039 uM incubated for 16 to 18 hrs in presence of 0.039 uM Nrf2 activator Bardoxolone methyl by immunostaining relative to control
[6] = target: T1, Transcription regulator protein BACH1 (Homo sapiens); test: Inhibition of Bach1 in normal human lung fibroblasts assessed as induction of HMOX protein expression at 0.156 uM incubated for 16 to 18 hrs in presence of 0.019 uM Nrf2 activator Bardoxolone methyl by immunostaining relative to control
[7] = target: T1, Transcription regulator protein BACH1 (Homo sapiens); test: Inhibition of Bach1 in normal human lung fibroblasts assessed as induction of HMOX protein expression at 2.5 uM incubated for 16 to 18 hrs in presence of 0.312 uM Nrf2 activator Bardoxolone methyl by immunostaining relative to control
[8] = target: T1, Transcription regulator protein BACH1 (Homo sapiens); test: Inhibition of Bach1 in normal human lung fibroblasts assessed as induction of HMOX protein expression at 0.312 uM incubated for 16 to 18 hrs in presence of 0.019 uM Nrf2 activator Bardoxolone methyl by immunostaining relative to control
[9] = target: T1, Transcription regulator protein BACH1 (Homo sapiens); test: Inhibition of Bach1 in normal human lung fibroblasts assessed as induction of HMOX protein expression at 0.039 uM incubated for 16 to 18 hrs in presence of 0.0097 uM Nrf2 activator Bardoxolone methyl by immunostaining relative to control
[10] = target: T1, Transcription regulator protein BACH1 (Homo sapiens); test: Inhibition of Bach1 in normal human lung fibroblasts assessed as induction of HMOX protein expression at 0.625 uM incubated for 16 to 18 hrs in presence of 0.0024 uM Nrf2 activator Bardoxolone methyl by immunostaining relative to control
[11] = target: T1, Transcription regulator protein BACH1 (Homo sapiens); test: Inhibition of Bach1 in normal human lung fibroblasts assessed as induction of HMOX protein expression at 0.019 uM incubated for 16 to 18 hrs in presence of 0.156 uM Nrf2 activator Bardoxolone methyl by immunostaining relative to control

CNC(=O)c1ccc2c(c1)nc(Nc1nc3ccc(OC(F)(F)F)cc3s1)n2C
fold change (FC) [1]: 13.2 | fold change (FC) [2]: 18.3 | fold change (FC) [3]: 17.3 | fold change (FC) [4]: 12.5 | fold change (FC) [5]: 14.7 | fold change (FC) [6]: 15.9 | fold change (FC) [7]: 10 | fold change (FC) [8]: 17.7 | fold change (FC) [9]: 5.31 | fold change (FC) [10]: 15.7 | fold change (FC) [11]: 22.9
